From US6749804B2, “Process for treating animal habitats” (H & S Chemical Company, Inc., priority 2000, dated 2004)

Assays:
poults (turkeys) = test: Turkey grow out in 20,000 Ft^2 poultry house; assay type: in vivo
Method: (§1) The present invention is illustrated by the following Examples however, these Examples are not to be construed as limiting the invention.
4. (Prior art) a poultry house was prepared by cleaning out the used animal bedding (shaved wood chips). The poultry house was then sprayed with a maximum formulation of formaldehyde. After a 72 hour drying period, new shaved wood chips were spread in the poultry house and stocked with 15,000 thousand poults (turkeys). The temperature of the house was maintained at 74°% F±4 degrees F. for the term of the grow out. The term of the grow out was 100 days, average moisture content in the bedding was maintained below 14%. Average relative humidity in the house atmosphere ranged from 40% to 84%.
After two to three weeks, 200 pounds of alum (or aluminum sulfate) was spread evenly on top of the shaved wood chips and dispersed throughout.
5. A poultry house was prepared by spraying all house surfaces (ceiling, walls, and padding/floor) with a solution of 2 pounds of 18.7% formulated TCM per 300 gallons of water. The concentration of the TCM for the washdown was 200 ppm. 12,000 young poults (turkeys) were then placed in the poultry house for a 100-day grow out. The average temperature of the house was maintained at 78° F.±4 degrees for the term of the grow out. The bedding material used was shaved wood chips. Average moisture content in the bedding was maintained below 14%. Average humidity in the house atmosphere ranged from 40% to 68%. The term of the grow out was 100 days.
6. A poultry house was prepared by spraying all house surfaces (ceiling, walls, and padding) after a complete cleanout of previous used wood shavings and manure, with a solution of 2 pounds of 18.7% TCM formulation to 300 gallons of water. The concentration of TCM for the washdown was 200 ppm. 6000 young poults (turkeys) were placed on 3 tons of fresh shaved wood chips in the poultry house. A direct spray-on application of the TCM formulation was sprayed on the new wood shavings and allowed to dry. The solution consisted of 1 pound of formulated TCM to 125 gallons of water or 100 ppm. The average temperature inside the poultry house was maintained at 80 degrees±4 degrees F. for the term of the grow out. Average moisture content in the bedding was maintained below 14%. Average relative humidity in the house atmosphere ranged from 50% to 85%. The term of the grow out was 100 days. The poultry house was retreated via a direct spray-on of the formulated TCM was applied to the bedding material at week 10 of the grow out period for the same batch of turkey poults. The concentration of the TCM in solution was 1 pound of formulated TCM per 125 gallons of water.

chickens = test: Chicken grow out in 20,000 Ft^2 poultry house; assay type: in vivo
Method: as §1
3. (Prior art) A poultry house was prepared by cleaning out the used animal bedding (shaved wood chips) The poultry house was then sprayed with a maximum formulation of formaldehyde. After a 72 hour drying period new shaved wood chips were spread in the poultry house and stocked with 19,000 thousand chickens, temperature of the house was maintained at 74% F±4 degrees F. for the term of the grow out. The terms of the grow out was 45 days, average moisture content in the bedding was maintained below 14%. Average relative humidity in the house atmosphere ranged from 40% to 84%.
After two weeks, 200 pounds of alum (aluminum sulfate) was spread evenly on top of the shaved wood chips and dispersed throughout.
7. A poultry house was prepared by using used bedding material. The used animal bedding (shaved wood chips) and manure had been in use for 18 months without removal. A direct spray on application consisting of a solution of one pound of TCM per 125 gallons of water or 100 ppm was sprayed on top of the used animal bedding. 19,000 young chickens were placed in the poultry house. The average temperature of the house was maintained at 78 degrees F. for the term of the grow out. Average moisture content in the bedding was maintained below 14%. The term of the grow out was 39 days.

e.Coli = test: Feces sample from animal bedding tested for e.Coli by independent laboratory; details: Example 8: 190 ppm TCM washdown; 16,000 poults; feces sample at eight weeks
Method: (§2) 8. A turkey house was prepared by spraying all surfaces with a solution of TCM. New wood chip bedding was then applied. The concentration was 10 pounds of TCM in 1,600 gallons of water or 190 ppm., 16,000 young poults (turkeys) were then placed in the poultry house for a 100 day grow out.
(§3) The purpose of this application was to compare e.Coli and salmonella results in a controlled environment as an alternative to formaldehyde, the current sanitizing method used by the poultry industry. At eight weeks of the grow out period after the wash down and the placement of the young poults, a feces sample was acquired from the animal bedding to determine disease levels from both the test poultry house and the control poultry house of Example 1. An independent laboratory tested the two samples.

salmonella = test: Feces sample from animal bedding tested for salmonella by independent laboratory; details: Example 8: 190 ppm TCM washdown; 16,000 poults; feces sample at eight weeks
Method: as §2, §3

Other avian diseases = test: Feces sample from animal bedding tested for other avian diseases; details: Example 8: 190 ppm TCM washdown; feces sample at eight weeks
Method: as §2, §3

[1] = test system: hog waste total bacterial content; test: Percent kill in hog waste mixed with TCM solutions; assay type: cell-based
Method: 9. Test were conducted on hog waste, 3 gallons of hog waste feces, urine and spillage were prepared. […] Various solution samples of TCM solutions were prepared and mixed with the 3 gallon samples. The percent kill of these various samples was in accordance with Table III.

[2] = Example 4 (prior art): formaldehyde spray, new wood chips, 200 pounds of alum after two to three weeks, 15,000 poults, 100 days
[3] = Example 3 (prior art): formaldehyde spray, new wood chips, 200 pounds of alum after two weeks, 19,000 chickens, 45 days
[4] = Example 5: house surfaces sprayed with 200 ppm TCM, 12,000 poults, 100-day grow out
[5] = Example 6: 200 ppm TCM washdown, 100 ppm spray on new wood shavings, retreated at week 10, 6000 poults, 100 days
[6] = Example 7: 100 ppm TCM sprayed on 18 month used bedding, 19,000 chickens, 39 days

C=O [formaldehyde, reference compound]
average weight gain for the turkeys (poults (turkeys); [2]): 21.8 pounds | bird mortality rate (poults (turkeys); [2]): 8.1% | birds condemned at the processing facility (poults (turkeys); [2]): 2.3% | average weight gain for the chickens (chickens; [3]): 3.96 pounds | bird mortality rate (chickens; [3]): 3.56% | percentage of birds condemned at the processing facility (chickens; [3]): 0.15%

trichloromelamine [TCM]
bird mortality (poults (turkeys); [4]): 2.7% | birds condemned at the processing facility (poults (turkeys); [4]): 1.7% | weight gain for the turkeys (poults (turkeys); [4]): 24.3 pounds | bird mortality (poults (turkeys); [5]): 0.7% | birds condemned at the poultry processing facility (poults (turkeys); [5]): 1.4% | weight gain for the birds (poults (turkeys); [5]): 23.9 pounds | weight gains of the chickens versus control poultry house (chickens; Example 7: 100 ppm TCM on used bedding vs control house treated with alum): insignificant difference | average weight (chickens; [6]): 4 pounds | bird mortality rate (chickens; [6]): 1.1% | birds condemned at the poultry processing facility (chickens; [6]): 0.04% | e.Coli in the animal bedding material (e.Coli): no e.Coli or salmonella | salmonella in the animal bedding material (salmonella): no e.Coli or salmonella | other avian diseases in the animal bedding material (Other avian diseases): not in the TCM test house | PERCENT KILL ([1]; 0.25 oz. in 3 gallons of hog waste): 99.997% | PERCENT KILL ([1]; 0.50 oz. in 3 gallons of hog waste): 99.9995% | PERCENT KILL ([1]; 0.75 oz. in 3 gallons of hog waste): 99.998% | PERCENT KILL ([1]; 1.0 oz. in 3 gallons of hog waste): 99.9998% | PERCENT KILL ([1]; 2.0 oz. in 3 gallons of hog waste): 99.9996% | PERCENT KILL ([1]; 3.0 oz. in 3 gallons of hog waste): >99.9998% | PERCENT KILL ([1]; 4.0 oz. in 3 gallons of hog waste): >99.9998%
